In PubChem BioAssay AID328 (DTP/NCI, 2004):
Values joined by “and” are separate entries in the source; they are usually repeats but may differ in a detail not shown here. Equal values may be shown once. Toxic doses and inconclusive results are not listed. How the source made its calls: active means survival T/C of 150% or more; inactive means T/C below 125% in these data.

System: BDF1 mice, P388 leukemia ip, median survival T/C
Assay: NCI In Vivo Anticancer Drug Screen. Data for tumor model P388 Leukemia (intraperitoneal) in B6D2F1 (BDF1) mice
Conditions: endpoint: median survival time, higher = longer survival
How it was run: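 Transplantable tumour in mice; compound vs vehicle dosing; survival scored; ratio of treated to control reported.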

[1] = dose: 100.0 mg/kg/injection, schedule: Q04DX003 (ip), vehicle: saline with Tween-80
[2] = dose: 100.0 mg/kg/injection, schedule: Q01DX009 (ip), vehicle: Klucel (hydroxypropylcellulose) (HPC)
[3] = dose: 200.0 mg/kg/injection, schedule: Q01DX009 (ip), vehicle: Klucel (hydroxypropylcellulose) (HPC)
[4] = dose: 400.0 mg/kg/injection, schedule: Q01DX009 (ip), vehicle: Klucel (hydroxypropylcellulose) (HPC)
[5] = dose: 200.0 mg/kg/injection, schedule: Q04DX003 (ip), vehicle: saline with Tween-80
[6] = dose: 50.0 mg/kg/injection, schedule: Q01DX009 (ip), vehicle: saline with Tween-80
[7] = dose: 100.0 mg/kg/injection, schedule: Q01DX009 (ip), vehicle: saline with Tween-80
[8] = dose: 200.0 mg/kg/injection, schedule: Q01DX009 (ip), vehicle: saline with Tween-80

Measured: T/C

Nc1ccc(O)cc1
inactive: dose: 264.0 mg/kg/injection, schedule: Q01DX009 (ip), vehicle: saline sonified 109 % of control | dose: 400.0 mg/kg/injection, schedule: Q01DX009 (ip), vehicle: saline sonified 90 % of control

Nc1nc2c(c(=O)[nH]1)NC(CCNc1ccc(C(=O)O)cc1)CN2 (stereo unspecified)
inactive: [1] 86 % of control

O=[N+]([O-])c1cccc(C[n+]2ccccc2C2OCCO2)c1
inactive: dose: 8.75 mg/kg/injection, schedule: Q01DX009 (ip), vehicle: saline 104 % of control | dose: 17.5 mg/kg/injection, schedule: Q01DX009 (ip), vehicle: saline 100 % of control | dose: 26.25 mg/kg/injection, schedule: Q04DX003 (ip), vehicle: saline 100 % of control | dose: 35.0 mg/kg/injection, schedule: Q01DX009 (ip), vehicle: saline 109 % of control | dose: 52.5 mg/kg/injection, schedule: Q04DX003 (ip), vehicle: saline 95 % of control

CC(=O)/C=C/c1ccco1
inactive: dose: 25.0 mg/kg/injection, schedule: Q01DX009 (ip), vehicle: DMSO 91 % of control | dose: 25.0 mg/kg/injection, schedule: Q04DX003 (ip), vehicle: DMSO 107 % of control | dose: 50.0 mg/kg/injection, schedule: Q01DX009 (ip), vehicle: DMSO 91 % of control | dose: 50.0 mg/kg/injection, schedule: Q04DX003 (ip), vehicle: DMSO 92 % of control

Cc1ccccc1NS(=O)(=O)c1c([N+](=O)[O-])ncn1C
inactive: dose: 50.0 mg/kg/injection, schedule: Q01DX009 (ip), vehicle: Klucel (hydroxypropylcellulose) (HPC) 110 % of control | [2] 116 % of control | [3] 116 % of control | [4] 95 % of control

C=C1[C@@H](C)[C@H]2[C@H](Cc3ccccc3)NC(=O)[C@]23OC(=O)/C=C/[C@H](O)CCC[C@@H](C)C/C=C/[C@H]3[C@@H]1O
inactive: dose: 0.25 mg/kg/injection, schedule: Q01DX005 (ip), vehicle: saline with Tween-80 86 % of control | dose: 0.5 mg/kg/injection, schedule: Q01DX005 (ip), vehicle: saline with Tween-80 100 % of control | dose: 1.0 mg/kg/injection, schedule: Q01DX005 (ip), vehicle: saline with Tween-80 100 % of control | dose: 1.0 mg/kg/injection, schedule: Q04DX002 (ip), vehicle: saline 109 % of control | dose: 2.0 mg/kg/injection, schedule: Q01DX005 (ip), vehicle: saline with Tween-80 107 % of control | dose: 2.0 mg/kg/injection, schedule: Q04DX002 (ip), vehicle: saline 109 % of control | dose: 4.0 mg/kg/injection, schedule: Q01DX005 (ip), vehicle: saline with Tween-80 115 % of control | dose: 8.0 mg/kg/injection, schedule: Q01DX005 (ip), vehicle: saline with Tween-80 117 % of control | dose: 8.0 mg/kg/injection, schedule: Q04DX002 (ip), vehicle: saline 109 % of control | dose: 16.0 mg/kg/injection, schedule: Q04DX002 (ip), vehicle: saline 109 % of control | dose: 32.0 mg/kg/injection, schedule: Q04DX002 (ip), vehicle: saline 100 % of control

COC(=O)c1ccc([N+](=O)[O-])c(OC)c1
inactive: dose: 75.0 mg/kg/injection, schedule: Q04DX003 (ip), vehicle: saline 100 % of control | dose: 150.0 mg/kg/injection, schedule: Q04DX003 (ip), vehicle: saline 100 % of control | dose: 300.0 mg/kg/injection, schedule: Q04DX003 (ip), vehicle: saline 104 % of control

O=C1CN(Cc2ccccc2)CC(=O)N2Cc3ccccc3CN12
inactive: dose: 100.0 mg/kg/injection, schedule: Q01DX005 (ip), vehicle: saline with Tween-80 101 % of control | dose: 200.0 mg/kg/injection, schedule: Q01DX005 (ip), vehicle: saline with Tween-80 92 % of control

CCCCOC(=O)c1ccc(NC(=O)NCCC)cc1
inactive: [1] 104 % of control | [5] 100 % of control | dose: 400.0 mg/kg/injection, schedule: Q04DX003 (ip), vehicle: saline with Tween-80 109 % of control

CC(=O)OC12C3CCCC1CCCC2CCC3 (stereo unspecified)
inactive: dose: 100.0 mg/kg/injection, schedule: Q01DX001 (ip), vehicle: Klucel (hydroxypropylcellulose) (HPC) 100 % of control | dose: 200.0 mg/kg/injection, schedule: Q01DX001 (ip), vehicle: Klucel (hydroxypropylcellulose) (HPC) 100 % of control | dose: 400.0 mg/kg/injection, schedule: Q01DX001 (ip), vehicle: Klucel (hydroxypropylcellulose) (HPC) 100 % of control

CC1CCCCN1O (stereo unspecified)
inactive: dose: 100.0 mg/kg/injection, schedule: Q04DX002 (ip), vehicle: saline with Tween-80 100 % of control | dose: 200.0 mg/kg/injection, schedule: Q04DX002 (ip), vehicle: saline with Tween-80 105 % of control | dose: 400.0 mg/kg/injection, schedule: Q04DX002 (ip), vehicle: saline with Tween-80 96 % of control

CCOC(=O)/C(C#N)=C/C=C1C=CN(C)C=C1
inactive: [6] 86 % of control | [7] 105 % of control | [8] 116 % of control

COc1ccc(OC)c(NC(=O)Nc2c(C)n(C)n(-c3ccccc3)c2=O)c1
inactive: [2] 105 % of control | [3] 90 % of control | [4] 105 % of control

COCCCNS(=O)(=O)c1ncnc2nc[nH]c12
inactive: dose: 132.0 mg/kg/injection, schedule: Q04DX003 (ip), vehicle: saline with Tween-80 100 % of control | [5] 100 % of control | dose: 300.0 mg/kg/injection, schedule: Q04DX003 (ip), vehicle: saline with Tween-80 100 % of control

[CH3][Sn]([CH3])([CH3])[S]C(=S)N1CCOCC1
inactive: dose: 0.75 mg/kg/injection, schedule: Q01DX009 (ip), vehicle: Klucel (hydroxypropylcellulose) (HPC) 97 % of control

CCN(CC)c1ccc(/C=C2/C=Cc3ccccc32)cc1
inactive: dose: 100.0 mg/kg/injection, schedule: Q04DX003 (ip), vehicle: saline sonified 95 % of control | dose: 200.0 mg/kg/injection, schedule: Q04DX003 (ip), vehicle: saline sonified 100 % of control | dose: 400.0 mg/kg/injection, schedule: Q04DX003 (ip), vehicle: saline sonified 100 % of control

CCCC1CC[N-]CC1.CCCC1CC[N-]CC1.[Cl][Cu][Cl]
inactive: dose: 2.0 mg/kg/injection, schedule: Q01DX009 (ip), vehicle: saline 89 % of control | dose: 4.0 mg/kg/injection, schedule: Q01DX009 (ip), vehicle: saline 100 % of control | dose: 8.0 mg/kg/injection, schedule: Q01DX009 (ip), vehicle: saline 100 % of control

NC(=O)c1[nH]nc(C2OC(CO)C(O)C2O)c1O (stereo unspecified)
inactive: dose: 0.25 mg/kg/injection, schedule: Q01DX009 (ip), vehicle: saline 116 % of control | dose: 0.5 mg/kg/injection, schedule: Q04DX003 (ip), vehicle: saline 99 % of control and 100 % of control and 104 % of control | dose: 0.62 mg/kg/injection, schedule: Q01DX009 (ip), vehicle: saline 100 % of control | dose: 0.63 mg/kg/injection, schedule: Q01DX009 (ip), vehicle: saline 113 % of control | dose: 1.0 mg/kg/injection, schedule: Q01DX009 (ip), vehicle: saline 120 % of control | dose: 1.0 mg/kg/injection, schedule: Q04DX003 (ip), vehicle: saline 103 % of control and 109 % of control | dose: 1.25 mg/kg/injection, schedule: Q01DX009 (ip), vehicle: saline 100 % of control | dose: 2.0 mg/kg/injection, schedule: Q04DX003 (ip), vehicle: saline 106 % of control and 108 % of control (2×) | dose: 4.0 mg/kg/injection, schedule: Q04DX003 (ip), vehicle: saline 99 % of control and 115 % of control | dose: 5.0 mg/kg/injection, schedule: Q04DX003 (ip), vehicle: saline 118 % of control | dose: 8.0 mg/kg/injection, schedule: Q04DX003 (ip), vehicle: saline 100 % of control and 112 % of control and 123 % of control | dose: 10.0 mg/kg/injection, schedule: Q04DX003 (ip), vehicle: saline 107 % of control | dose: 16.0 mg/kg/injection, schedule: Q04DX003 (ip), vehicle: saline 123 % of control | dose: 20.0 mg/kg/injection, schedule: Q04DX003 (ip), vehicle: saline 118 % of control

O=C1c2ccccc2-c2ncccc21
inactive: dose: 100.0 mg/kg/injection, schedule: Q04DX003 (ip), vehicle: Klucel (hydroxypropylcellulose) (HPC) 100 % of control | dose: 200.0 mg/kg/injection, schedule: Q04DX003 (ip), vehicle: Klucel (hydroxypropylcellulose) (HPC) 95 % of control

CS(=O)(=O)Nc1ccccc1[N+](=O)[O-]
inactive: [6] 109 % of control | [7] 104 % of control and 115 % of control | [8] 100 % of control

C[S+](C)N(c1ccc(Cl)cc1)C(C)(C)C
inactive: dose: 25.0 mg/kg/injection, schedule: Q01DX001 (ip), vehicle: saline 104 % of control | dose: 50.0 mg/kg/injection, schedule: Q01DX001 (ip), vehicle: saline 111 % of control

C/C=C1\CCC2C(=C1C)CC1C2CC=C2CC(OC(C)=O)CCC21C (stereo unspecified)
inactive: [2] 115 % of control | [3] 120 % of control | [4] 105 % of control
